In a melting point compilation (Tetko et al.; mined from patent text by program, amines drawn as free bases though some values may be those of a salt):

melting point | SMILES
232 to 234 °C | Nc1nnc(-c2ccc(CN3CCCCCC3)s2)o1
84 to 85 °C | O=C(O)CCCC/C=C(/c1cccnc1)c1cccs1
141 to 142 °C | O=C(O)c1cn(Cc2ccc(Oc3ccccc3)cc2)nc1OCc1ccc(Oc2ccccc2)cc1
221 to 225 °C | Cc1cccc2c(=O)n(S(=O)(=O)c3ccc(Cl)cc3)c(=O)[nH]c12
172 to 175 °C | Cc1cccc(NC(=O)CN2CCN(c3ccccc3[N+](=O)[O-])CC2)c1
59 °C | Cc1ccc(NCCN(C)C)c([N+](=O)[O-])c1
54 to 55 °C | CC(C)(C)C(=O)OCOC(=O)COc1ccc(Cc2ccc(Cl)cc2)cc1
121 to 128 °C | COc1cccc(S(=O)(=O)N(C)C)c1C#N
197 to 198 °C | COc1ccc(N2CCN(c3ccc(NC(=O)Oc4ccccc4)cn3)CC2)cc1
167 to 170 °C | CC1(C)CCC(C)(C)c2cc(N(Cc3cccs3)C(=O)Nc3ccc(C(=O)O)cc3)ccc21
230 to 231 °C | COc1cc(C=CC=C2SC(=O)NC2=O)ccc1OC(C)C
130 °C | OC1CSC(Oc2cccc(-c3cccnc3Cl)c2)C(O)C1O (stereo not drawn)
176 °C | CN(C)c1cccc(C(=O)NC2CCN(C(c3ccccc3)c3ccccc3)CC2)c1[N+](=O)[O-]
184 to 188 °C | CNC(=S)n1nc(N=CN(C)C)nc1N
184 °C | Oc1ccc(-n2nnnc2C2CC2)cc1
96 to 99 °C | CC(=O)OCCOCn1cnc2c(Cl)nc(Cl)nc21
201 °C | O=C(Cc1ccc(OCc2cccs2)cc1)NC1(C(=O)O)Cc2ccc(-c3ccc(Cl)cc3)cc2C1 (stereo not drawn)
46 to 48 °C | Cc1ccc(S(=O)(=S)OCC2CC2)cc1 (stereo not drawn)
362 to 366 °C | NC(=O)c1nc(-c2cccc(O)c2)nc2c1[nH]c(=O)n2Cc1ccccc1
192 to 193 °C | COc1cc(C=CC2=NN=C(C)Cc3cc(OC)c(OC)cc32)ccc1O
206 to 208 °C | O=c1c2c(Cc3cccc(C(F)(F)F)c3)n[nH]c2c2cccnc2n1-c1cccc(C(F)(F)F)c1
151 to 154 °C | COc1ccc(C2CNC(=O)N2C(C)c2ccccc2)cc1OC1CC2CCC1C2 (stereo not drawn)
114 to 117 °C | COc1ncnc(-c2cc([N+](=O)[O-])c(F)cc2F)c1C
145 to 146 °C | CC(=O)Nc1ccc2c(c1)C(CN1CCC(c3ccc(F)cc3)CC1)CC2 (stereo not drawn)
364 to 368 °C | Cc1sc2nc3ccc(C(=O)O)cn3c(=O)c2c1C

melting point | SMILES
182 to 184 °C | COc1c(C2CCN(CCCCNC(=O)c3ccc(-c4ccc(C#N)s4)cc3)CC2)ccc2c1CCCC2
151 to 153 °C | Cc1ccccc1-n1c(=O)c(N2CCNCC2)nc2ccccc21
103 to 108 °C | Cc1ccc(-c2c(Cl)nc(C#N)n2S(=O)(=O)c2c(C)noc2C)cc1
102 to 103 °C | c1ccc(NC2CCc3cccnc3C2)cc1 (stereo not drawn)
146 to 148 °C | COc1ccc(CCNc2nccc(-c3cccc(NC(C)=O)c3)n2)cc1OC
67 to 70 °C | Clc1ccc2c(c1)CCN(c1ccccc1)C2
216 to 217 °C | CSc1ccccc1CNC(=O)[C@@H]1CCCN(c2cccc3c2C(=O)N(Cc2ccncc2)C3=O)C1
108 to 110 °C | NC(CO)c1ccc(-c2ccc(SC(F)F)cc2)cc1 (stereo not drawn)
45 to 48 °C | CC(C)(C)OC(=O)N1CCC(C(=O)Nc2ccccc2Oc2ccc(OC(F)(F)F)cc2)CC1
67 to 69 °C | O=C(OC1CCN(Cc2ccc(Cl)cc2)CC1)c1ccc(Cl)cc1
260 to 263 °C | Cc1ccc2c(c1)C=Cc1cc(C)ccc1C2c1cn(-c2ccnc(NCC(=O)O)n2)c(=O)[nH]c1=O
176 to 177 °C | O=C(OCc1ccccc1)N1CCC(O)(Cn2nc(-c3c(-c4ccccc4)nn4ccccc34)ccc2=O)CC1
166 to 168 °C | O=[N+]([O-])c1oc2c(CC(CO)CO)cccc2c1-c1ccccc1
185 to 187 °C | CCCCN(CCCC)c1ccc(C=CC=Cc2ccc(C=CC3=C(C#N)C(=C(C#N)C#N)OC3(C)C)s2)c(OC)c1
226 °C | Brc1ccc2oc3ccc(Br)cc3c2c1
172 to 175 °C | COc1nsc2nc3ccccc3n12
111 to 112 °C | CC(C)(C)OC(=O)N1CC=C(c2ccc(N)c([N+](=O)[O-])c2)CC1
113 to 114 °C | CCCc1nc(C=O)cc(N)c1F
238 to 240 °C | CN(C)c1ccc(C(=O)Nc2nc(-c3ccco3)c(C(=O)C3CCOCC3)s2)cc1
130 to 132 °C | COc1cc(OC)nc(Oc2cccc(Oc3nc(OC)cc(OC)n3)c2C(=O)OCc2ccccc2)n1
51 to 51.5 °C | CCCCCCCCCC(=O)COS(=O)(=O)c1ccc(Cl)cc1
250 to 254 °C | CC(=O)N1CCc2[nH]c3cc(-n4ccc(OCc5ccccc5)cc4=O)ccc3c2CC1
136 to 138 °C | NC(=O)OC(=O)[C@@H]1Cc2ccccc2CN1C(=O)OCc1ccccc1
188 to 191 °C | CCN1C(=O)C(C)(C)C(=O)Nc2ccc(C=O)cc21
56.6 °C | OCCCOc1c(Cl)cc(OCC=C(Cl)Cl)cc1Cl

melting point | SMILES
141 to 142 °C | CCCOc1ccccc1-c1nc2nc(N(CC)CCO)ncc2c(=O)[nH]1
145 to 147 °C | CNC(=O)[C@H](O)[C@@H](Sc1ccccc1N)c1ccc(OC)cc1
100 to 102 °C | CCCCSc1ccc(C(=O)O)nc1
104 to 107 °C | CC(C)c1noc(-c2c(Cl)ccc(C(=O)O)c2Cl)n1
94 °C | ClCCOc1ccc2ccccc2c1
105 to 110 °C | Cn1c2c(c3c(Cl)cccc31)CCOC2(C)CC(=O)O (stereo not drawn)
105 to 106 °C | CCc1cn(C)c(C2Cc3ccccc3N2C(C)=O)n1 (stereo not drawn)
48 °C | C=CCCn1c(=O)c2c(ncn2CCC)n(C)c1=O
69 °C | CCCc1ccc(C(=O)O)c(F)c1F
166 to 168 °C | COc1cc(-c2ccc(S(C)(=O)=O)cc2)c(-c2ccc(F)cc2)c(C(F)(F)F)n1
226 to 233 °C | COc1ccc(N2CCOCC2)c2sc(-c3nc(-c4ccccc4)c[nH]3)nc12
176 to 178 °C | CSc1nc(-c2ccncc2)cc(=O)n1C
143 to 145 °C | CC(C)c1nc(C(C)C)c(CN2CCC(N3CCCCC3)CC2)c(-c2ccc(F)cc2)c1CO
129 to 131 °C | CC(C)=CCN1CC(NC(=O)Nc2cccc(C(=O)O)c2)C(=O)N(CC(=O)c2ccccc2C)c2cc(C)ccc21 (stereo not drawn)
125 to 126 °C | O=C(O)CCc1cnoc1-c1ccc(F)cc1F
121 to 123 °C | CC1(c2ccc(OCc3ccccc3)c(C3CO3)c2)OCCO1 (stereo not drawn)
92 to 95 °C | CCCCCCCCCCCCCCCCCCOc1ccc(OCCCOc2ccc(OCc3ccccc3)cc2)c(C(=O)O)c1
217 to 220 °C | CCn1cc(Cl)c(=O)[nH]c1=O
212 to 213 °C | C=CCSCC(N)C(=O)O (stereo not drawn)
70 to 71 °C | O=C(C1=NCCCCCN1)c1ccccc1
191 to 192 °C | O=C(O)CN1C(=O)C(Cl)=C(Cl)C1=O
238 to 240 °C | CN1CCC2(CCc3c(C4=C(c5cn(C)c6ccccc56)C(=O)OC4=O)c4ccccc4n3C2)C1 (stereo not drawn)
285 to 288 °C | CS(=O)(=O)NCC1COCc2nc3c(N)nc4ccccc4c3n21 (stereo not drawn)
177 to 179 °C | CSc1nnc(-c2ccc3ccccc3c2)n1C
84 to 86 °C | COC(=O)Cc1ccc2occ(-c3ccc(Br)cc3)c2c1

melting point | SMILES
68 to 70 °C | CNCCCN1CCc2cc(OC)c(OC)cc2CC1=O
148 to 150 °C | CC(C)(C)c1cc(C=Cc2cc(C=Cc3cc(C(C)(C)C)cc(C(C)(C)C)c3)cc(C=C(Br)Br)c2)cc(C(C)(C)C)c1
39 to 41 °C | COc1ccc(C#CCCCCCCC#CCO)cc1OC
163 °C | CC(C)(C)c1ccc(OCC(=O)NCc2ccc(NS(C)(=O)=O)cc2)cc1
119 to 121 °C | O=S(=O)(NCC1CCN(C[C@H]2COc3ccc(Cl)cc3O2)CC1)c1ccc(F)cc1F
36 °C | CCC[C@H]1CC[C@H](c2ccc(CCc3ccc(C#N)cc3)cc2)CC1
152 to 160 °C | CCOC(=O)CNC(=O)c1ccc(CCC2CNc3nc(N)nc(O)c3C2)s1 (stereo not drawn)
194 to 195 °C | O=c1ccn(C2OC(CO)C(O)C2Br)c(=O)[nH]1 (stereo not drawn)
79 to 81 °C | CC(=O)OCC1OC(n2cc(C(Br)=CBr)c(=O)[nH]c2=O)CC1OC(C)=O (stereo not drawn)
140 to 151 °C | CCOC(=O)N1CCOC(CNC(=O)c2cc(Cl)c(N)cc2OC)C1 (stereo not drawn)
64 to 65.5 °C | CS(=O)(=O)Oc1cc([N+](=O)[O-])c(F)cc1Cl
234 to 238 °C | CC1(C)CCC(C)(C)c2cc3cc(-c4c[nH]c(C(=O)O)c4)ccc3cc21
146 °C | O=COCc1c(Cl)ccc2cc(Cl)cnc12
86 to 95 °C | CCCc1cc2c(c3ccc(O)cc13)OCc1cc(O)ccc1-2
177 to 178 °C | CC=CCn1c(C(=O)c2cc(C)cc(C#N)c2)c(C(C)C)c(=O)[nH]c1=O
127 to 129 °C | CCNc1nc(Oc2ccccc2)nc2nc(-c3ccco3)nn12
261 to 263 °C | Cc1nc(-c2cccc3ccccc23)n2cn[nH]c(=O)c12
211 to 212 °C | CC(=O)n1c(=O)n(-c2ccc3c(c2)OCO3)c2ncccc21
92 to 93 °C | COc1nc2ccccc2cc1C=O
140 to 141 °C | COC(=O)c1cc(S(=O)(=O)N=CN(C)C)ccc1Cl
116 to 119 °C | CC(=O)NCCC1CCc2c(F)cc3nn(C)cc3c21 (stereo not drawn)
172 °C | O[C@@H]1CN=C(c2ccc3ccccc3c2)O[C@H]1c1ccccc1 (racemic)

SMILES | melting point
CN(C)c1nc(C(F)(F)F)cc(=O)n1-c1cc(F)c(C#N)cc1F | 147 °C
CC1Cc2ccc(Br)cc2C(c2ccc([N+](=O)[O-])cc2)=NN1C(=O)C(F)(F)F (stereo not drawn) | 193 to 196 °C
N[C@@H](Cc1ccccc1)C(=O)NCC(=O)Nc1ccc([N+](=O)[O-])cc1C(=O)c1ccccc1 | 144 to 146 °C
c1ccc(N2c3ccccc3[C@@H]3CNCC[C@H]32)cc1 | 74 to 76 °C
C[C@@H]1CCC[C@H](C)N1CCCNC(=O)CN1C(=O)CCC1(C)C | 86 to 87 °C
Clc1ccc(I)c(CBr)c1 | 75 to 79 °C
